Tested on: 5XFAD mice
Assay: Contextual fear conditioning (CFC), freezing response
Assay type: in vivo
Conditions: m-3M3FBS-injected 5XFAD mice
Source text: To test the acute effect of AβO on hippocampal S-eCB mobilization, hippocampal slices from Sprague-Dawley rats (SD, 2 to 3 weeks old, […] Biolink, Co., Ltd., Korea) were used. Male and female rats were used in all in vitro experiments. To test the chronic effect of AβO on hippocampus-dependent memory impairments caused by amyloidosis, the 5XFAD mouse model (6 to 7 months old, #34840-JAX, Jackson Laboratory, USA), which is a mouse model of Alzheimer's disease that mimics AβO depositions, was used. C57BL/6 mice (6 to 7 months old, KOATECH, Korea) were used as wild type (WT) control mice for 5XFAD mice. Male 5XFAD and C57BL/6 mice were used for all in vivo behavioral experiments. […] A ceiling-mounted video camera recorded the behavior activity, and fed the corresponding video into a customized computer software (MATLAB, USA). […] Behavioral mobility data collected during the contextual conditioning experiments were automatically detected using the gray scaling method of EthoVision XT (Noldus, USA). […] Since a body-freezing response (freezing) is considered a conditioned response to CFC during the memory session, the body-freezing response was detected when the threshold was below the 2.0% threshold of mobility. That is, this means that there could be no more than a 2.0% change in the pixels of a detected mouse between the current sample and the previous sample. […]

For Cc1cc(C)c(S(=O)(=O)Nc2cccc(C(F)(F)F)c2)c(C)c1 [m-3M3FBS], the “freezing responses during memory recall compared to DMSO-injected 5XFAD mice” value was “remarkably increased”.

From patent publication US20250049741A1, “COMPOSITION FOR PREVENTING OR TREATING ALZHEIMER'S DISEASE COMPRISING PHOSPHOLIPASE C ACTIVATOR AS AN ACTIVE INGREDIENT” (Korea University Research and Business Foundation, priority 2021, published 2025)
